# Experiment: Compound was evaluated for binding affinity against [3H]- Cl-DPDPE labeled Opioid receptor delta 1 in guinea-pig brain homogenate.
row,SMILES,Ki [nM]
1,"O=C(/C=C/c1ccc([N+](=O)[O-])cc1)N[C@@H]1CC[C@@]2(O)[C@H]3Cc4ccc(O)c5c4C2(CCN3CC2CC2)[C@H]1O5 [1N-[4-cyclopropylmethyl-10,17-dihydroxy-(5R,13R,14R,17S)-12-oxa-4-azapentacyclo[9.6.1.01,13.05,17.07,18]octadeca-7(18),8,10-trien-14-yl]-3-(4-nitrophenyl)-(E)-2-propenamide]",5.1
2,"Cc1ccc(/C=C/C(=O)N[C@@H]2CC[C@@]3(O)[C@H]4Cc5ccc(O)c6c5C3(CCN4CC3CC3)[C@H]2O6)cc1 [1N-[4-cyclopropylmethyl-10,17-dihydroxy-(5R,13R,14R,17S)-12-oxa-4-azapentacyclo[9.6.1.01,13.05,17.07,18]octadeca-7(18),8,10-trien-14-yl]-3-(4-methylphenyl)-(E)-2-propenamide]",9.6
3,"O=C(/C=C/c1ccccc1)N[C@@H]1CC[C@@]2(O)[C@H]3Cc4ccc(O)c5c4[C@@]2(CCN3CC2CC2)[C@H]1O5 [17-Cyclopropylmethyl-3,14beta-dihydroxy-4,5alpha-epoxy-6beta-(cinnamoylamino)morphinan]",3.1
4,"O=C(/C=C/c1ccc(Cl)cc1)N[C@@H]1CC[C@@]2(O)[C@H]3Cc4ccc(O)c5c4C2(CCN3CC2CC2)[C@H]1O5 [1N-[4-cyclopropylmethyl-10,17-dihydroxy-(5R,13R,14R,17S)-12-oxa-4-azapentacyclo[9.6.1.01,13.05,17.07,18]octadeca-7(18),8,10-trien-14-yl]-3-(4-chlorophenyl)-(E)-2-propenamide]",5
5,COC(=O)/C=C/C(=O)N[C@@H]1CC[C@@]2(O)[C@H]3Cc4ccc(O)c5c4[C@@]2(CCN3CC2CC2)[C@H]1O5 [Beta-Funeltrexamine],22

# Reference: BindingDB's records for doi:10.1016/0960-894X(95)00583-F (1996)
